Measured values: article PMC12266748, “A Xanthine Derivative With Novel Heat Shock Protein 90‐Alpha Inhibitory and Senolytic Properties” (Aging Cell, 2025)
“Also recorded” adds a separate entry of the source. Where two headings read alike, the source gives them in different places.

How the values were obtained:
HSP90β = HSP90β (Homo sapiens, UniProt P08238); experiment: Cellular thermal shift assay (CETSA) on cellular lysates, HSP90β; conditions: 46°C, compound 0.5 mM
Experimental: Cellular Thermal Shift Assay (CETSA). […] Briefly, the cellular extract was lysed in RIPA buffer (10 mM Tris-HCl pH 7.4, 250 mM NaCl, 1% NP40/IGEPAL, 1% DOC, 0.01% SDS, 0.01% Glycerol, supplemented with protease/phosphatase inhibitor, PI/PhI mix and 2 mM DTT) and protein concentration was determined by a BCA kit (Pierce, Life Technologies, TFS, Waltham, MA, USA). Samples were homogenized by 3 cycles of freeze-thawing using liquid nitrogen and centrifuged at 13000 rpm at 4 °C for 30 min to separate the soluble fraction from the debris.
Following the supplier's recommendations, samples were loaded into the proper cartridge (12- 230 kDa Wes/Jess Separation Modules, ProteinSimple, Biotechne, Minneapolis, MN, USA). HSP90α (1:50, MsMAb, Abcam), HSP90β (1:50, RbMAb, Abcam), GRP94 (1:50, RbMAb, Abcam), TRAP1 (1:50, MsMAb, Abcam), α-Tubulin (1:500, MsMAb, Abcam), and β-Actin (1:500, RbMAb, Abcam) were used as primary antibodies. Secondary antibodies were Anti-Mouse Secondary HRP and Anti-Rabbit Secondary HRP (ProteinSimple, Biotechne, Minneapolis, MN, USA).

[1] = Bidirectional permeability in Caco-2 cells; type: in vitro ADME; conditions: 5 µM, HBSS pH 7.4, 2 hours
Experimental: APHAD S.r.l (Buccinasco, MI, Italy) performed all evaluations. Detailed protocols are reported in the extended methods section.
Permeability in Caco-2 cells. To evaluate the bidirectional permeability of the 2 compounds, Caco-2 cells (ECACC, ReadyCells, Barcellona, Spain), considered a reference cellular line for in vitro preclinical evaluation of oral dosage products, were used. These cells are cultured in monolayers, which become differentiated polarized epithelial cells after 21 days, expressing tight junctions, microvilli, intracellular metabolic enzymes, and transmembrane transporters such as BCRP, MDR1, and MRP2 (an artificial model equivalent to the intestinal epithelium). […] At the end of the experiment, the integrity of the cellular junction was measured by incubating the Lucifer yellow (LY) at the apical side (at the concentration of 0.02 mg/mL in MEM medium) and with MEM medium in the basolateral compartment for 1 hour at 37°C. At the end of incubation, fluorescence was read on a fluorimeter at λ 430-538nm. Samples were analyzed on a UPLC Acquity (Waters) coupled with an API 3200 Triple Quadrupole AB Sciex. […] The apparent permeability (Papp), the efflux ratio (ER), and the Recovery (R) were calculated to allow for estimation of metabolism and non-specific binding. […] Data are expressed as mean of n=2 (± SD).

IMR90 cells = experiment: In vitro screening of the 14 in silico-selected compounds, surviving cell count, proliferating vs senescent IMR90; type: cell-based, Homo sapiens; conditions: 48 h; for effect on non-senescent IMR90 cells: PD15-PD17, 1 μM; for senolytic activity on senescent IMR90 cells: PD19-PD21, 1 μM
Source text: (§1) IMR90 and WI38 lung fibroblasts were purchased from ECACC‐Merck. Human bone marrow (BM)‐derived mesenchymal stromal cells (MSCs) were purchased from Lonza. Human umbilical vein endothelial cells (HUVECs) are primary cells obtained from a pool of donors purchased from Clonetics (Lonza). Murine ear fibroblasts (MearFs) were obtained from C57BL/6J mice maintained in the INRCA “Specific Pathogen Free” (SPF) animal facility. MCF7 breast cancer cells were purchased from ATCC. For dose–response curves, IMR90 and WI38 were induced to senescence through replicative passages; MSCs, HUVECs, and MearFs senescence was induced with Doxorubicin; MCF7 senescence was induced with 4‐Hydroxytamoxifen (Lee et al. [2014]). The EC50 was calculated using GraphPad Prism 10 software. All treatment specifications are reported in the extended section.
(§2) Cell culture and treatment. IMR90 cells (Homo sapiens, fetal lung, fibroblast) and WI38 cells (Homo sapiens, fetal lung, fibroblast) were purchased from ECACC-Merck (Merck, Darmstadt, Germany) and cultured in MEM medium (Euroclone, Milano, Italy) supplemented with 1% L-Glutamine (Euroclone, Milano, Italy), 1% Penicillin-Streptomycin (Euroclone, Milano, Italy), and 10% Fetal Bovine Serum (FBS, Euroclone, Milano, Italy), at 37°C, 5% CO2. IMR90 cells with a population doubling (PD) from PD15 to PD23 were used; cells were considered incrementally senescent from passage PD19 to passage PD23. WI38 cells were used from PD26 to PD53. Cells were considered incrementally senescent from passage PD49 to passage PD53. For the compounds in vitro screening, IMR90 cells with passages from PD15 to PD23 were tested at increasing concentrations of 0.5 μM, 1 μM, 10 μM, and 25 μM over 24 and 48 h to evaluate the compounds' efficacy and cytotoxicity compared to the Vehicle (DMSO ≤ 0.1%). Cells were counted manually, in triplicate, using Trypan blue reagent (Euroclone) and disposable Bürker chambers. […] K5 dose-response proliferation curves were performed with compound K5 (Molport, SIA, Riga, Latvia) in concentrations 0.1, 0.5, 1, 5, 10, 50, 100, and 200 μM for 48 h. Cells were counted using a Trypan blue reagent and EVAplus cell counter. The EC50s were calculated by analyzing the data using GraphPad Prism 10 software.

WI38 cells = experiment: Dose-response curves on proliferating and replicative senescent WI38 (Trypan blue cell count); type: cell-based; conditions: for EC50: Homo sapiens, WI-38
Source text: as §1, §2
MCF7 cell line (ATCC; HTB-22, Homo sapiens, breast cancer) was purchased from ATCC; cells were grown in MEM medium (Corning, New York, USA, #15-010-CVR) supplemented with 10% FBS (Gibco, Invitrogen, Carlsbad, CA, USA, #10270106), 1% glutamine (Corning #25005-CI), 1% penicillin and streptomycin (Corning #30002-CI). Cells were incubated at 37 °C with 5% CO2. Senescent status induction: MCF7 were plated 24 h before the treatment with 4-Hydroxytamoxifen (TAM) 10 μM to induce the senescence described by (Lee et al. 2014). Control cultures were treated with equal volumes of 75% ethanol as the vehicle. The treatment with TAM lasts 96 h, after which the cells have been washed and treated with the senolytic drugs K5 10 µM for another 96 h. The treatment with the senolytic compounds has been renewed at 48 h. Cell mortality and vitality curves after treatment with K5 (10 μM, orange) or Vehicle (DMSO, grey) were monitored using the Incucyte live-cell Analysis system (Sartorius, Goettingen, Germany). The estimated Senolytic index (SI) was calculated as the ratio between the EC50 in proliferating cells and the EC50 in senescent cells, extrapolated using GraphPad Prism 10 software.

Chain of HSP90β (P08238 whole entry): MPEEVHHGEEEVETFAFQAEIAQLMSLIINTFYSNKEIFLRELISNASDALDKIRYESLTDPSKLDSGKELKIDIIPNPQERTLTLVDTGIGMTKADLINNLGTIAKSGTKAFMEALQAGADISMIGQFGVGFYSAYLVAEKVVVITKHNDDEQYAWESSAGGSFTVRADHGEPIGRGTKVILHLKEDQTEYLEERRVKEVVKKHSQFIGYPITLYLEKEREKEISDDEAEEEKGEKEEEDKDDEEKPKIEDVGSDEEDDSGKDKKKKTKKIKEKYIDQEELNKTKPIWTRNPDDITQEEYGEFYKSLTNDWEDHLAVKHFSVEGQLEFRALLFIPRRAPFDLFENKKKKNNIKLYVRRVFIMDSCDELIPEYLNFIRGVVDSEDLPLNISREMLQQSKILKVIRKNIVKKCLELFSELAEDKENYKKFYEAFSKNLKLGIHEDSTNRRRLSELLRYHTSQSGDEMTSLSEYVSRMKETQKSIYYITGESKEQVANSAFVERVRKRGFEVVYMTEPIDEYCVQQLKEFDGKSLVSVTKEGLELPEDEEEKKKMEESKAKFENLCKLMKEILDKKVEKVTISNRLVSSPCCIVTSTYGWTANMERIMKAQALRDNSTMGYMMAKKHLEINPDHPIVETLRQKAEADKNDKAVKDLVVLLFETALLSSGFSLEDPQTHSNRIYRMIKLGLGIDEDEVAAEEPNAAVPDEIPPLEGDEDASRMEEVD

| Compound | stabilization of HSP90β in CETSA (HSP90β) | Caco-2 bidirectional permeability [1] | effect on non-senescent IMR90 cells (IMR90 cells) | senolytic activity on senescent IMR90 cells (IMR90 cells) | EC50 (WI38 cells; WI38, Replicative/passages, read-out: EC50 senescent cells) | EC50 (WI38 cells; WI38, read-out: EC50 proliferating cells) | Senolytic evidence (no, partly/yes) (WI38 cells; WI38, Replicative/passages) | Senolytic index (estimated) (WI38 cells; WI38, SI = EC50 in proliferating cells/EC50 senescent cells) | toxicity in proliferating cells (WI38 cells; proliferating WI38 (PD29), 100 nM to 200 μM, 48 h) |
| --- | --- | --- | --- | --- | --- | --- | --- | --- | --- |
| CC(C)(C)S(=O)(=O)C/C(N)=N/OS(=O)(=O)c1ccc(F)cc1F [Compound K4, (Z)-N'-[(2,4-difluorobenzenesulfonyl)oxy]-2-(2-methylpropane-2-sulfonyl)ethanimidamide] | did not observe a stabilization | no K4 signal was detected | robust level of safety | evident senolytic activity; also recorded: highest senolytic activity |  |  |  |  |  |
| Cc1ccccc1-n1c(=O)n(Cc2ccccc2)c(=O)c2[nH]cnc21 [Compound K5, 1-benzyl-3-(2-methylphenyl)-7H-purine-2,6-dione] | did not observe a stabilization | excellent permeability in both directions | robust level of safety | evident senolytic activity; also recorded: highest senolytic activity | 650 nM | > 500000 nM | Yes | > 770 | no evident toxicity |
